From patent US20240262814A1, “MODULATORS OF TREX1” (Constellation Pharmaceuticals, Inc., priority 2021, published 2024) come the findings set out here.

pIC50: −log10 of the molar value. A value given as a limit tells only on which side of the number the result lay.

The assay relates to hTREX1 HCT116. Nature of the assay: hTREX1 HCT116 Cell Assay (Lucia luciferase reporter, Type I interferon induction). To be noted: Homo sapiens, HCT-116, HCT116 dual cells, 4h compound, then pBR322/BstNI DNA transfection, 48h. It is filed as cell-based. The source says: HCT116 dual cells (Invivogen, San Diego, CA, USA) are derived from the human HCT116 colorectal carcinoma cell line. Cells have been selected for the stable integration of SEAP and Luciferase reporter genes, which expression is under the control of 5 tandem response elements for NF-KB/AP1 and STAT1/STAT2, respectively. The cell line was used to monitor Type I interferon induction and subsequent signaling by measuring the activity of the Lucia luciferase secreted in the culture medium.
HCT116 cells were plated in 96-well plate(s) at 40,000 cells/well in 100 uL DMEM supplemented with 10% FBS and 25 mM Hepes (pH 7.2-7.5). After overnight settling, cells were treated with TREX1i for 4h (maximum DMSO fraction was 0.1%) before 1 ug/mL pBR322/BstNI restriction digest (New England Biolabs, Ipswich, MA, USA) was transfected with Lipofectamine LTX (ThermoFisher, Grand Island, NY, USA), according to product manual recommendations. Briefly, Lipofectamine LTX (0.35 uL/well) was diluted in OptiMEM (5 uL/well). pBR322/BstNI (100 ng/well) was diluted in OptiMEM (5 uL/well) before Plus reagent (0.1 uL/100 ng DNA) was added. After 5 min incubation at room temperature, the DNA mixture was mixed dropwise with the diluted Lipofectamine LTX. After an additional 10 min incubation, the transfection mix (10 uL/well) was added to the cells. Cells were maintained at 37 C for 48h before monitoring the Lucia Luciferase activity from the cell culture medium.
As to `CC(c1nc(C(=O)Nc2cnoc2)c(O)c(=O)n1C)C(c1ccccc1)c1ccccc1` (single isomer, unassigned) [Example 1 Isomer 1, 2-(1,1-diphenylpropan-2-yl)-5-hydroxy-N-(isoxazol-4-yl)-1-methyl-6-oxo-1,6-dihydro pyrimidine-4-carboxamide], the pIC50 is under 7.00.
To `CC(c1nc(C(=O)Nc2cnoc2)c(O)c(=O)n1C)C(c1ccccc1C#N)c1ccccc1C#N` (single isomer, unassigned) [Example 4 Isomer 2] belongs over 8.00; to `C[C@H](c1nc(C(=O)Nc2cnoc2)c(O)c(=O)n1C)[C@H](c1ccccc1)c1ccccc1C(F)(F)F` (single isomer, unassigned) [Example 14 Isomer 2, 5-Hydroxy-N-(isoxazol-4-yl)-1-methyl-6-oxo-2-(1-phenyl-1-(2-(trifluoromethyl)phenyl)propan-2-yl)-1,6-dihydropyrimidine-4-carboxamide], under 7.00; to `C[C@H](c1nc(C(=O)Nc2cnoc2)c(O)c(=O)n1C)C(c1ccccc1Cl)c1ccccc1Cl` (single isomer, unassigned) [Example 15 Isomer 1, 2-(1,1-bis(2-chlorophenyl)propan-2-yl)-5-hydroxy-N-(isooxazol-4-yl)-1-methyl-6-oxo-1,6-dihydropyrimidine-4-carboxamide], 7.00 to 8.00.
To `CC(c1nc(C(=O)Nc2cnoc2)c(O)c(=O)n1C)C(c1ccccc1)c1cc(C(=O)N(C)C)ccc1C#N` (single isomer, unassigned) [Example 17 Isomer 3] belongs 7.00 to 8.00; to `Cn1c([C@H](C(c2ccccc2)c2ccccc2)C(F)(F)F)nc(C(=O)Nc2cnoc2)c(O)c1=O` (single isomer, unassigned) [Example 20 Isomer 1, 5-Hydroxy-N-(isoxazol-4-yl)-1-methyl-6-oxo-2-(1,1,1-trifluoro-3,3-diphenylpropan-2-yl)-1,6-dihydropyrimidine-4-carboxamide], under 7.00; to `Cn1c([C@@H](C(c2ccccc2C#N)c2ccccc2C#N)C(F)(F)F)nc(C(=O)Nc2cnoc2)c(O)c1=O` (single isomer, unassigned) [Example 21 Isomer 1, 2-(3,3-bis(2-cyanophenyl)-1,1,1-trifluoropropan-2-yl)-5-hydroxy-N-(isoxazol-4-yl)-1-methyl-6-oxo-1,6-dihydropyrimidine-4-carboxamide], over 8.00.
